Measured values: US20170239310A1, “Composition for Promoting Anti-Diabetic and Anti-Obesity Effects, Comprising Herbal Extract” (DONGGUK UNIVERSITY GYEONGJU CAMPUS INDUSTRY- ACADEMY …, priority 2014, published 2017)
“Also recorded” adds a separate entry of the source.

Columns and labels:
[1] = DPPH free radical scavenging activity; format: biochemical; conditions: 300 μM DPPH, 37° C., 30 minutes
Description: 40 μl of a sample was mixed with 760 μl of 300 μM 2,2-diphenyl-1-picrylhydrazyl (DPPH) and the mixture was incubated at 37° C. for 30 minutes, and then the mixture was aliquoted to each well of a 96-well plate in triplicate and absorbance was measured at 515 nm using a microplate reader. BHT was used as a positive control group.

PPAR-α = PPAR-α gene expression (real-time PCR) in RAW 264.7 cells; format: cell-based; conditions: normal group (N) 1.01
Description: (§1) Total RNA was separated and purified using TRIsure (Bioline, USA) according to a protocol. 1 μg of total RNAs was subjected to a reverse transcription reaction using a cDNA synthesis kit (Sprint™RT Complete Oligo-(dT)18, Clontech, Mountain View, Calif., USA) according to a protocol for synthesizing first strand cDNA. The produced RT-PCR sample was subjected to real-time PCR reaction, in which the final reaction volume was adjusted to 20 μl and Light Cycler-Fast Start DNA Master SYBR Green (Roche Applied Science, Indianapolis, Ind., USA) and a Light Cycler instrument (Roche Applied Science) were used.
(§2) PCR amplification was performed according to PCR steps, consisting of a pre-incubation step at 95° C. for 10 minutes and 35 (for beta-actin) or 45 (for C/EBPa) cycles of amplification (denaturation at 95° C. for 10 seconds, annealing at 52° C. for 10 seconds, and extension at 72° C. for 15 seconds). Total RNA was separated and purified using TRIsure (Bioline, USA) according to a protocol. 1 μg of total RNAs was subjected to a reverse transcription reaction using a cDNA synthesis kit (Sprint™RT Complete Oligo-(dT)18, Clontech, Mountain View, Calif., USA) according to a protocol for synthesizing first strand cDNA. […]

L6 rat myoblast cells = assay: Glucose uptake assay (2-NBDG); format: cell-based; conditions: 2-NBDG 100 μg/ml; compared to control group / metformin alone
From the text: Undifferentiated L6 rat myoblast cells were differentiated into myotube cells using 2% horse serum. […] When performing measurement, apigenin, a compound that inhibits glucose uptake, was used as a control.

OLETF/LETO rats = assay: Intraperitoneal insulin tolerance test (IPITT); format: in vivo, rat; conditions: metformin 100 mg/kg alone or with 200 mg/kg extract, insulin 1 U/kg IP
Description: Dietary intakes, body weights, states, and the like were checked weekly, and at 24 weeks, an IPITT was performed using blood collected from the tail veins. After 12 weeks, the rats were sacrificed under anesthesia with an intraperitoneal (IP) injection of Zoletil/Rompun, and fat, each organ sample, and serum were separated. One week prior to the end of the experiments, OLETF/LETO rats were fasted for 15 hours and then administered with 1 U/kg of insulin by intraperitoneal (IP) injection, and then measurement of blood sugar levels was performed using an Accu-Chek blood glucose meter (Roche, USA) on blood samples, which had been collected from the tail vein of each individual by bleeding a small amount of blood at 0, 30, 60, 90, and 120 minutes. The obtained values for blood sugar levels were analyzed using an area under curve (AUC), and the like.

AMPK-α = AMPK-α gene expression (real-time PCR) in RAW 264.7 cells; format: cell-based; conditions: normal group (N) 0.80
Description: as §1, §2

TNF-α = TNF-α gene expression (real-time PCR) in RAW 264.7 cells; format: cell-based; conditions: normal group (N) 1.01
Description: (§3) To identify the gene expression levels of XBP-1, TNF-α, and IL-6, real-time PCR was performed according to the same method as described in Example 3 except primers.

in vivo = conditions: rat, po, 100 mg/kg
HepG2 cells = assay: Intracellular reactive oxygen species (ROS) activity, DHR123/FACS; format: cell-based; conditions: 6 hours, compared to normal group / metformin alone
Description: After centrifugation at 1200 g for 5 minutes, a supernatant was discarded, and the remaining HepG2 cells were treated with 5 μg/ml of DHR123, followed by incubation at 37° C. for 30 minutes. After additional centrifugation for 5 minutes, PBS washing was performed two times and filtration was performed. Intracellular reactive oxygen species activity was measured based on the value of fluorescence intensity obtained from FACS analysis.

IL-6 = IL-6 gene expression (real-time PCR) in RAW 264.7 cells; conditions: normal group (N) 1.11
Description: as §3

3T3-L1 cells = assay: Fat cell differentiation (Oil red O staining); format: cell-based; conditions: compared to control group / metformin alone
Description: After seeding 3T3-L1 cells into a 6-well plate at a density of 5×10^5 cells/well, the cells were cultured until reaching full confluence. The pre-existing culture medium for the cells was exchanged with DMEM (differentiation media) containing 1 μM dexamethasone, 0.5 mM IBMX, and 10 μg/ml insulin, and the cells were cultured for 48 hours and then were treated with DMEM (maturation media) containing 10 μg/ml insulin to induce differentiation. Differentiation-induced fat cells produced as a result of the process were treated with samples at various concentrations or a positive control group, and inhibitory effects on fat cell differentiation were analyzed using an Oil red O staining method, TG, and a TC assay.

RAW 264.7 cells = assay: LPS-induced nitrogen monoxide (NO) generation, GRIESS reaction; format: cell-based; conditions: 1 μg/ml LPS, 24 hours, compared to LPS group / metformin alone
Description: To compare an anti-inflammatory function, an in vitro model of LPS-induced nitrogen monoxide (NO) generation was used in an experiment, and NO measurement was carried out using a cell supernatant based on the GRIESS reaction (Green et al., 1982). RAW 264.7 cells were seeded at a density of 1.5×10^5 cells/ml and pre-treated with samples diluted at various concentrations, and after 1 hour, the pretreated cells were treated with 1 μg/ml of lipopolysaccharide (LPS: Sigma, St Louis, Mo., USA), followed by incubation for 24 hours. 50 μl of a cell culture supernatant and 50 μl of 1% (w/v) sulfanilamide, a GRIESS reagent, were added to each well of a 96-well plate, and the 96-well plate shaded from light was incubated at room temperature for 10 minutes and then 50 μl of 0.1% (w/v) N-1-naphthylethylenediamine dissolved in 2.5% (v/v) phosphoric acid was added to each well of the 96-well plate and mixed, followed by incubation under dark conditions for 10 minutes. Absorbance was read at 540 nm using a microplate reader (Molecular Devices, CA, USA) within 30 minutes after finishing incubation. NO production was calculated using a nitric oxide standard solution.

RIN-m5F insulinoma cells = assay: Insulin secretion assay (rat insulin ELISA); format: cell-based; conditions: […] metformin with extract, 20 mM glucose
Description: A portion of cell culture supernatant was subjected to centrifugation at 4° C. for 10 minutes, and after centrifugation, a supernatant was collected and stored at −20° C. for further use. The amount of secreted insulin was measured using a rat insulin ELISA kit (Mercodia, Sweden), and an insulin secretion amount per gram of proteins was calculated by measuring the concentration of cellular proteins in each well.

XBP-1 = XBP-1 gene expression (real-time PCR) in RAW 264.7 cells; format: cell-based; conditions: normal group (N) 1.00
Description: as §3

Row | SMILES | DPPH free radical scavenging IC50 [1] [µg/mL] | gene expression level of PPAR-α (PPAR-α) | capacity of glucose uptake (L6 rat myoblast cells) | insulin resistance (IPITT, blood sugar AUC) (OLETF/LETO rats) | gene expression level of AMPK-α (AMPK-α) | gene expression level of TNF-α (TNF-α) | CL renal (in vivo; blood and urine) [mL/min/kg] | AUC(0-t) (in vivo; blood) [ng·h/mL] | CL/F (in vivo; blood) [mL/min/kg] | Cmax (in vivo; blood) [ng/mL] | Tmax (in vivo; blood) [h] | intracellular ROS activity (HepG2 cells) | gene expression level of IL-6 (IL-6) | lipid formation attributed to differentiation of 3T3-L1 preadipocytes (3T3-L1 cells) | production amount of nitrogen monoxide (RAW 264.7 cells) | amount of insulin secretion (RIN-m5F insulinoma cells) | gene expression level of XBP-1 (XBP-1)
1 | Cc1cc(C(C)(C)C)c(O)c(C(C)(C)C)c1 [BHT] | 113.85 | – | – | – | – | – | – | – | – | – | – | – | – | – | – | – | –
2 | CN(C)C(=N)N=C(N)N [Metformin, metformin] | – | 0.68 | increased capacity of glucose uptake | tendency to decrease; also recorded: tendency of decreasing | 0.76 | 1.34 | 40.3 ± 13.8 | 29000 | 54.3 ± 15.4 | 7650 ± 3100 | 1.5 | tendency of decreasing intracellular reactive oxygen species (ROS) activity | 1.91 | tendency of decreasing lipid formation | production amount of nitrogen monoxide was decreased | significant changes in the amounts of insulin secretion were not observed | 1.01
